# Assays:
# [1] = tested on: 4R and 3R tau protein in LAN5 cells; experiment: 4R/3R tau protein by Western blotting in LAN5 cells; assay type: cell-based; conditions: LA-N-5; 2 at 1.5 μM, LAN5, 48 h; read-out: reduction of 4R/3R protein ratio
# Procedure: Western Blotting. LAN5 cells were seeded in 6-well plates at 0.6×10^6 cells per well, treated with compound and incubated for 48 h. After removing the growth medium, the cells were washed with 1×DPBS and harvested by trypsinization. Total protein was extracted with Mammalian Protein Extraction Reagent (M-PER, Thermo Scientific) per the manufacturer's protocol. Protein concentrations were determined using a Pierce Micro BCA Protein Assay Kit per the manufacturer's recommended protocol. Approximately 20 μg of total protein from each biological sample was separated on a sodium dodecyl sulfate (SDS)-polyacrylamide gel (5% (w/v) polyacrylamide stacking layer; 12% (w/v) polyacrylamide separating layer), followed by transferring to a polyvinylidene fluoride (PVDF; 0.45 μm) membrane. […] After three more washes with 1×TBST for 15 min each, 4R, 3R tau protein, or B-actin were detected using SuperSignal West Pico Chemiluminescent Substrate (Pierce Biotechnology).
# After imaging, the membrane was stripped with 1× Stripping Buffer (200 mM glycine with 0.1% SDS, pH 2.2) for 0.5 h at room temperature, and β-actin levels were detected as described above, except using a β-actin primary antibody (Cell Signaling Technology, 4970S; 1:5000 dilution). ImageJ software was used for the quantification of the protein bands.
# WT model RNA = experiment: Optical melting, WT RNA; assay type: binding; conditions: 2 at 1.5 μM
# Procedure: Optical Melting Experiments. The thermal stabilities of WT, DDPAC, and DDPAC+I17T model RNAs were analyzed by optical melting in the presence or absence of compound 1 or 2 as previously described.^18 The RNAs (2 μM) were heated to 95° C. in 1×PBS buffer and slowly cooled to room temperature. The samples were then cooled to 15° C. in the presence of compound 1 (10 μM; 0.1% (v/v) DMSO), 2 (1.5 μM; 0.1% (v/v) DMSO) or vehicle (0.1% (v/v) DMSO) and then heated to 85° C. at a rate of 1° C. per min. Absorbance as a function of temperature was measured at 260 nm using a Beckman Coulter DU800 UV/vis spectrophotometer. Melting curves were fitted with MeltWin 3.5.^31
# WT tau RNA duplex = experiment: NMR spectral analysis (WaterLOGSY, 1D, 2D NOESY) with WT tau duplex; assay type: binding
# Procedure: Preparation of NMR Samples. Two duplex-forming oligoribonucleotides r (5′-[…]-3′ (SEQ ID NO: 3))+r(5′[…]-3′ (SEQ ID NO: 4)) were designed to mimic the stem of the tau wild type (WT) hairpin. Individual RNA oligonucleotides were combined in 400 μL of NMR Buffer [10 mM KH2PO4/K2HPO4, pH 6.0 and 0.5 mM EDTA] in H2O or 100% D2O with a final RNA duplex concentration of 15 μM for WaterLOGSY experiments, […] was added to 5% (v/v) to provide a lock signal. RNA samples were annealed by heating to 95° C. for 3 min, followed by slow cooling to room temperature before being added to Shigemi NMR tubes (Shigemi, Inc.). Compound of interest was added to a final compound: RNA molar ratio of 20.0 for WaterLOGSY experiments, 2.0 for 1D ^1H H2O experiments, and 1.5 for 2D ^1NOESY experiments.
# NMR Spectroscopy. NMR spectra were acquired on Bruker Avance III 600 and 700 MHz spectrometers equipped with cryoprobes. WaterLOGSY spectra were acquired at 298 K, 1D NMR spectra of samples in 95% H2O/5% D2O were acquired at 283 K, and 2D NOESY spectra in 100% D2O were acquired at 308 K. For 1D spectra of samples in 95% H2O/5% D2O, an excitation sculpting sequence during acquisition suppressed the water signal. Proton chemical shifts were referenced internally to the frequency of water. WaterLOGSY and 1D ^1H spectra were processed using Bruker TopSpin and 2D NMR spectra were processed with NMRPipe^1 and assigned with SPARKY^2.
# [2] = Body weight / tolerability, WT mice; assay type: in vivo, WT mouse (C57BL/6J); conditions: 100 mg/kg p.o. q.o.d., 20 days
# Excerpt: hTau Mice Studies. htau mice and WT mice (C57BL/6J) were purchased from Jackson Laboratories. htau mice were maintained in-house through breeding between htau+/− mice. Genotype was confirmed by PCR amplification as previously described.^18 Only homozygous mice were used in in vivo studies. Mice were randomly assigned to a treatment group, which were age- and gender-matched (n=X). In these studies, mice were >9 months of age since cognitive and physiological impairments in htau mice was age-dependent and were not presented in young mice (<4 months) with early-stage tau pathology.^42 Mice were orally administered vehicle (5/5/90 DMSO/Tween-80/H2O) or 100 mg/kg of 2 in the same formulation every other day (q.o.d.). During the treatment period, nesting activity was assessed, as describe in Nesting Activity below. After 20 days, the mice were euthanized (in accordance with guidelines provided by the American Veterinarian Medical Association), and the brain was harvested for analysis. One hemisphere of the brain was frozen at −80° C. for RT-qPCR analyses while the other was used for histological studies.
smiles,measurement,setting,value
"COc1cc(N)ncc1CCCN(C)CCCn1cnc2c3ccccc3n(C)c2c1=O [Compound 2, 3-(3-((3-(6-amino-4-methoxypyridin-3-yl)propyl)(methyl)amino)propyl)-5-methyl-3,5-dihydro-4H-pyrimido[5,4-b]indol-4-one]",inhibition at 1.5 µM,[1],54 ± 9%
same,increase of Tm,WT model RNA,0.76±0.1 °C
same,WaterLOGSY on addition of RNA,"WT tau RNA duplex; 300 μM of 2, WT tau duplex, 298 K","changed the sign of the NOE, resulting in the appearance of negative peaks"
same,RNA 1D 1H (imino proton) spectrum on addition of compound,WT tau RNA duplex; 0.5-2.0 equivalents of 2,dose dependent changes in the RNA's 1D ^1H spectrum
same,NOE between compound and RNA,"WT tau RNA duplex; 2D NOESY, 400 ms mixing time, 35° C.",A single NOE was observed from H5/H6 of the compound to G17H1′
same,change in weight,[2],no change in the weight
